Test results taken from patent US10316038B2, “Pyrrolopyrimidine ITK inhibitors for treating inflammation and cancer” (ACLARIS THERAPEUTICS, INC., priority 2017, dated 2019).

Key:
[1] = target: T1, ITK (Homo sapiens, UniProt Q08881); experiment: ITK inhibitor binding potency (LanthaScreen competitive binding assay); conditions: TR-FRET competitive binding, 10 nM ITK, 50 nM kinase tracer-236; pre-incubation condition not given; read-out: ITK Inhibition IC50
T1 sequence (Q08881 1-620): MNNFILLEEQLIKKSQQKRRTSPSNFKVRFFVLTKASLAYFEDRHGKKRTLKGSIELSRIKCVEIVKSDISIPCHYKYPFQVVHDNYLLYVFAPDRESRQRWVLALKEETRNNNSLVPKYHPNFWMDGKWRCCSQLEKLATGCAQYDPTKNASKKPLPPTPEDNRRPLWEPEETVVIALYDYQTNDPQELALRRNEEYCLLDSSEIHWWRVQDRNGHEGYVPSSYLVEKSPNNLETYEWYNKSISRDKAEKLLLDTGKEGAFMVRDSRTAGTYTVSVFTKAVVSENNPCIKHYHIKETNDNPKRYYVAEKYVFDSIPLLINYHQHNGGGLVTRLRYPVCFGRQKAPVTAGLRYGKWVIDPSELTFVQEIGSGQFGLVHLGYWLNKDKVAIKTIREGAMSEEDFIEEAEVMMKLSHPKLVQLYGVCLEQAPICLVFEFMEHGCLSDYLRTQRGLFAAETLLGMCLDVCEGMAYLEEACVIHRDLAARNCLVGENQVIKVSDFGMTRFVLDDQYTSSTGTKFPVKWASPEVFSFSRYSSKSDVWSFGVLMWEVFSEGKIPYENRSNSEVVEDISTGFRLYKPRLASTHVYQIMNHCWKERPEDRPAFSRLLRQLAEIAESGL
Source text: The ability of candidate compounds to interact with ITK is quantitated by a competitive binding assay using the LanthaScreen technology developed by Life Technologies. This assay is based on the binding of a proprietary, Alexa Fluor™ 647-labeled, ATP-competitive kinase inhibitor (kinase tracer-236) to the ITK expression construct in the presence of a Europium-conjugated antibody, resulting in a FRET (fluorescence resonance energy transfer) signal. Displacement of the kinase tracer by compound results in a lower emission ratio upon excitation of the Europium chelate. Candidate compounds are designed as potential irreversible inhibitors of ITK, capable of ligating to an active site cysteine residue resulting in time dependent covalent binding. The time dependent nature of irreversible inhibition is investigated by performing the binding assay with and without a pre-incubation of compound and ITK. […] The inhibitory potency of candidate compounds is measured in 20 mM HEPES pH 7.5, 10 mM MgCl2, 0.01% BSA, 0.0005% Tween-20, and 2% DMSO in the presence of 10 nM ITK, 2 nM Eu-anti-GST antibody, and 50 nM kinase tracer-236 using a 384-well plate format. Background signal is defined in the absence of ITK and uninhibited signal is defined in the presence of vehicle (2% DMSO) alone. Compounds were evaluated in an 11 point dose-response ranging from 20 uM to 0.34 nM. The binding assays are performed under two preincubation conditions to evaluate time dependence of inhibition. For the pre-incubation assay, ITK and Eu-anti-GST antibody are pre-incubated with compound or vehicle for two hours prior to the addition of kinase tracer. The non-preincubated assay is run under conditions where ITK and Eu-anti-GST antibody are added to a mixture of compound and kinase tracer. IC50 values of compounds are determined using a 4 parameter logistical fit of emission ratio as a function of the concentration of compound.

[2] = tested on: ITK phosphorylation of its substrate, PLCγ1, at Y783; experiment: ITK target modulation assay (phospho-Y783 PLCγ1 immunoblot in Jurkat T cells); format: cell-based; conditions: Homo sapiens, Jurkat, 2 h, 2 hours compound, CD3/CD28 Dynabeads stimulation 100 sec, anti-phospho-Y783 PLCγ1 immunoblot, read-out: PLC-γ Inhibition IC50
Method: Target modulation was based upon the ability of a compound to inhibit ITK phosphorylation of its substrate, PLCγ1, at […]. Human Jurkat T cells were placed in snap-cap polypropylene tubes at 4 million per tube in 800 μL medium (RPMI1640 with 10% heat inactivated serum and […] 2-mercaptoethanol and supplemented with glutamine/penicillin/streptomycin). Compounds were added as 100 μL of 10× working stock solutions in medium with 1% DMSO (or medium with 1% DMSO for controls) and placed in a 37° C. incubator for 2 hours. Stimulation was carried out using CD3/CD28 Dynabeads to activate the T cell receptor and mimic antigen presenting cells. Beads were added for 100 sec at a ratio of 1 bead per cell, in 100 μL medium (or medium alone for unstimulated control). Starting at 70 sec, cells and beads were pelleted in a microfuge for 15 sec, the supernatant aspirated, and 50 μL lysis buffer was added per tube and mixed with the pellet at the 100 sec time point. Tubes were placed on a rotator for 30 min at 4° C., and cell debris was pelleted in a microfuge. Supernatant was mixed 1:1 with 2× Sample Buffer and subjected to SDS-polyacrylamide gel electrophoresis. After transfer to nitrocellulose, immunoblotting was done with anti-phospho-[…] PLCγ1 antibody. Immunoblots were visualized with ECL using horseradish peroxidase conjugated secondary antibody.

SMILES | IC50 [1] [nM] | IC50 [2] [nM]
CN(C)C/C=C/C(=O)Nc1cccc(-c2cnc3[nH]cc(-c4cn(C)c(=O)c5[nH]ccc45)c3c2)c1 [Example 6, (E)-4-(dimethyl-amino)-N-(3-(3-(6-methyl-7-oxo-6,7-dihydro-1H-pyrrolo[2,3-c]-pyridin-4-yl)-1H-pyrrolo[2,3-b]-pyridin-5-yl)-phenyl)but-2-enamide] | ≤ 100 | > 5000
C=CC(=O)Nc1cc(-c2cnc3[nH]cc(-c4ccnc(C#N)c4)c3c2)cc(-c2cnn(C)c2)c1 [Example 21, N-(3-(3-(2-cyano-pyridin-4-yl)-1H-pyrrolo[2,3-b]pyridin-5-yl)-5-(1-methyl-1H-pyrazol-4-yl)-phenyl)acrylamide] | ≤ 100 | ≤ 1000
CN(C)C/C=C/C(=O)Nc1cncc(-c2cnc3[nH]cc(-c4ccncn4)c3c2)c1 [Example 57, (E)-4-(dimethyl-amino)-N-(5-(3-(pyrimidin-4-yl)-1H-pyrrolo[2,3-b]pyridin-5-yl)-pyridin-3-yl)but-2-enamide] | ≤ 100 | > 5000
CN(C)C/C=C/C(=O)Nc1cncc(-c2cnc3[nH]cc(-c4ccnc(F)c4)c3c2)c1 [Example 45, (E)-4-(dimethyl-amino)-N-(5-(3-(2-fluoropyridin-4-yl)-1H-pyrrolo-[2,3-b]pyridin-5-yl)pyridin-3-yl)-but-2-enamide] | ≤ 100 | ≤ 1000
COc1cc(NC(=O)/C=C/CN(C)C)cc(-c2cnc3[nH]cc(-c4ccnc(C#N)c4)c3c2)c1 [Example 39, (E)-N-(3-(3-(2-cyanopyridin-4-yl)-1H-pyrrolo-[2,3-b]pyridin-5-yl)-5-methoxy-phenyl)-4-(dimethylamino)-but-2-enamide] | ≤ 100 | ≤ 1000
C=CC(=O)Nc1cncc(-c2cnc3[nH]cc(-c4ccncn4)c3c2)c1 [Example 50, N-(5-(3-(pyrimidin-4-yl)-1H-pyrrolo-[2,3-b]pyridin-5-yl)pyridin-3-yl)acrylamide] | ≤ 100 | ≤ 1000
COc1cc(NC(=O)/C=C/CN(C)C)cc(-c2cnc3[nH]cc(-c4cccc(C#N)c4)c3c2)c1 [Example 19, (E)-N-(3-(3-(3-cyanophenyl)-1H-pyrrolo[2,3-b]-pyridin-5-yl)-5-methoxyphenyl)-4-(dimethyl-amino)but-2-enamide] | ≤ 100 | ≤ 1000
CN(C)C/C=C/C(=O)Nc1cc(-c2cnc3[nH]cc(-c4ccncn4)c3c2)cc(C(F)(F)F)c1 [Example 49, (E)-4-(dimethyl-amino)-N-(3-(3-(pyrimidin-4-yl)-1H-pyrrolo[2,3-b]pyridin-5-yl)-5-(trifluoro-methyl)phenyl)-but-2-enamide] | ≤ 100 | ≤ 1000
Cc1cc(-c2c[nH]c3ncc(-c4cc(NC(=O)/C=C/CN(C)C)cc(C(F)(F)F)c4)cc23)ccn1 [Example 33, (E)-4-(dimethyl-amino)-N-(3-(3-(2-methylpyridin-4-yl)-1H-pyrrolo-[2,3-b]-pyridin-5-yl)-5-(trifluoro-methyl)phenyl)-but-2-enamide] | ≤ 100 | ≤ 1000
C=CC(=O)Nc1cc(OC(F)(F)F)cc(-c2cnc3[nH]cc(-c4cccc(C#N)c4)c3c2)c1 [Example 47, N-(3-(3-(3-cyano-phenyl)-1H-pyrrolo[2,3-b]-pyridin-5-yl)-5-(trifluoromethoxy)-phenyl)acrylamide] | ≤ 100 | 1000 to 5000
C=CC(=O)Nc1cc(OC)cc(-c2cnc3[nH]cc(-c4ccnc(C#N)c4)c3c2)c1 [Example 51, N-(3-(3-(2-cyano-pyridin-4-yl)-1H-pyrrolo[2,3-b]-pyridin-5-yl)-5-methoxyphenyl)-acrylamide] | ≤ 100 | > 5000
C=CC(=O)Nc1cc(-c2cnc3[nH]cc(-c4cccc(F)c4)c3c2)cc(C(F)(F)F)c1 [Example 63, N-(3-(3-(3-fluoro-phenyl)-1H-pyrrolo[2,3-b]-pyridin-5-yl)-5-(trifluoro-methyl)phenyl)-acrylamide] | ≤ 1000 | 1000 to 5000
CN(C)C/C=C/C(=O)Nc1cc(-c2cnc3[nH]cc(-c4ccnc5c4ccn5C)c3c2)cc(C(F)(F)F)c1 [Example 55, (E)-4-(dimethyl-amino)-N-(3-(1′-methyl-1H,1′H-[3,4′-bipyrrolo[2,3-b]pyridin]-5-yl)-5-(trifluoro-methyl)phenyl)-but-2-enamide] | ≤ 100 | ≤ 1000
C=CC(=O)Nc1cc(-c2cnc3[nH]cc(-c4cccc(C#N)c4)c3c2)cc(-c2cnn(C)c2)c1 [Example 18, N-(3-(3-(3-cyano-phenyl)-1H-pyrrolo[2,3-b]-pyridin-5-yl)-5-(1-methyl-1H-pyrazol-4-yl)-phenyl)acrylamide] | ≤ 100 | ≤ 1000
CN(C)C/C=C/C(=O)Nc1cc(-c2cnc3[nH]cc(-c4cccc(C#N)c4)c3c2)cc(C(F)(F)F)c1 [Example 1, (E)-N-(3-(3-(3-Cyanophenyl)-1H-pyrrolo[2,3-b]pyridin-5-yl)-5-(trifluoromethyl)phenyl)-4-(dimethylamino)but-2-enamide] | ≤ 100 | ≤ 1000
C=CC(=O)Nc1cc(-c2cnc3[nH]cc(-c4cncnc4)c3c2)cc(C(F)(F)F)c1 [Example 67, N-(3-(3-(pyrimidin-5-yl)-1H-pyrrolo-[2,3-b]pyridin-5-yl)-5-(trifluoro-methyl)phenyl)-acrylamide] | ≤ 100 | ≤ 1000
C=CC(=O)Nc1cc(-c2cnc3[nH]cc(-c4cccc(C#N)c4)c3c2)cnc1OC1CCOC1 (stereo not drawn) [Example 5, N-(5-(3-(3-Cyanophenyl)-1H-pyrrolo[2,3-b]pyridin-5-yl)-2-((tetrahydrofuran-3-yl)oxy)pyridin-3-yl)acrylamide] | ≤ 100 | 1000 to 5000
CN(C)C/C=C/C(=O)Nc1cncc(-c2cnc3[nH]cc(-c4ccnc(C#N)c4)c3c2)c1 [Example 4, (E)-N-(5-(3-(2-Cyanopyridin-4-yl)-1H-pyrrolo[2,3-b]pyridin-5-yl)pyridin-3-yl)-4-(dimethylamino)but-2-enamide] | ≤ 100 | ≤ 1000
C=CC(=O)Nc1cc(-c2cnc3[nH]cc(-c4cnc(OC)nc4)c3c2)cc(C(F)(F)F)c1 [Example 68, N-(3-(3-(2-methoxy-pyrimidin-5-yl)-1H-pyrrolo[2,3-b]pyridin-5-yl)-5-(trifluoromethyl)-phenyl)acrylamide] | ≤ 100 | ≤ 1000
C=CC(=O)Nc1cncc(-c2cnc3[nH]cc(-c4cccc(C(F)(F)F)c4)c3c2)c1 [Example 62, N-(5-(3-(3-(trifluoromethyl)-phenyl)-1H-pyrrolo[2,3-b]-pyridin-5-yl)-pyridin-3-yl)-acrylamide] | ≤ 1000 | > 5000
C=CC(=O)Nc1cc(OC)cc(-c2cnc3[nH]cc(-c4ccnc5[nH]ccc45)c3c2)c1 [Example 15, N-(3-(1H,1′H-[3,4′-bipyrrolo-[2,3-b]pyridin]-5-yl)-5-methoxy-phenyl)acrylamide] | ≤ 100 | ≤ 1000
